From PMC4459817, “Vasculotide reduces endothelial permeability and tumor cell extravasation in the absence of binding to or agonistic activation of Tie2” (EMBO Molecular Medicine, 2015) come the findings set out here.

The test system of this test is residual and metastatic LM2-4luc disease after resection. As to the kind of experiment: orthotopic LM2-4luc xenografts with surgical resection of primary tumor (adjuvant setting). The test is classed as in vivo, human LM2-4luc cells in CB-17 SCID mice. From the text:
A second orthotopic implantation experiment involved surgical resection of primary LM2-4^luc tumors (∽400 mm^3) at 17DPI (Fig6) to model post-operative metastases arising from minimal residual disease (MRD). MRD includes the regrowth of incompletely resected mammary tumors, as well as circulating or disseminated tumor cells released from primary tumors prior to or at the time of surgical resection. VT was initiated 6 days prior to surgery and maintained chronically, while adjuvant SU (1-week or 3-week 60 mg/kg/day) treatments were initiated 1 day post-surgery (Fig6A).
In vivo experiments were performed in strict accordance with protocols approved by the Sunnybrook Research Institute Animal Care Committee, accredited by the Canadian Council of Animal Care. All surgical, imaging, and euthanasia procedures were performed under inhaled isoflurane anesthesia. Experimental metastasis models involved injections of 10^6 tumor cells, suspended in 200 μl serum-free DMEM, into the mouse tail vein. LM2-4^luc implantations were performed on 6 to 8-week-old female CB-17 SCID mice (Charles River Canada). HT29^luc implantations were performed on 19- to 20-week-old male and 11- to 12-week-old female YFP-SCID mice (bred in-house). SN12^luc implantations were performed on 9-week-old male YFP-SCID mice. Spontaneous metastasis models involved orthotopic implantations of 2 × 10^6 LM2-4^luc cells/50 μl serum-free DMEM in the right inguinal mammary fat pads of 6-week-old female CB-17 SCID mice.
Sunitinib malate (SU), from Pfizer or LC Laboratories, and its vehicle were formulated as described before (Ebos et al, [2009]). SU was administered by oral gavage (PO), once daily, at a dose of 60 mg/kg mouse weight. Vasculotide (VT): VT synthesized at the Sunnybrook Research Institute (Toronto, ON, Canada) was used in experiments described in Fig2(A–D) and Supplementary Fig S5(A and B). VT synthesized by American Peptide (Sunnyvale, CA, USA) was used in experiments described in Fig5. VT synthesized by Bachem UK Ltd was used in experiments described in Figs1, 2(E–H), 3, 4, 6–9, Supplementary Figs S2, and S5(C and D). Lyophilized product was reconstituted in PBS to 500 μg/500 μl stock aliquots and stored at −80°C. As needed, stock aliquots were diluted with PBS to a 250 ng/50 μl working concentration and stored in 0.4–1 ml aliquots at −80°C. VT (at a standard dose of 250 ng/mouse) or its vehicle (PBS) was administered to mice by intraperitoneal (IP) injections every other day.
5. Bioluminescence imaging (BI) of tumor burden
For in vivo BI: Mice were injected intraperitoneally with 150mg/kg luciferin (Promega) 10 minutes prior to and anesthetized with isofluorane just before luminescent pseudocolor imaging (uniform settings: CCD camera locked at -105 °C, exposure=60s, f/1, subject size=1.5cm, bin=8, FOV=23.2cm, full image correction) using the IVIS 200 Imaging System (Caliper/PerkinElmer). Using the Living Image software (v2.50.1, Xenogen), weekly images were analyzed under uniform color range on grayscale photographic overlay. Total fluxes (photons/sec) were quantified within consistent regions of interest and statistically compared ideally at a timepoint before any deaths have occurred.
For ex vivo BI: Mice were sacrificed at 7 mins after luciferin injections, then organs of interest were dissected and individually placed within 24-well plates for imaging at 10 min post-luciferin injection.
6. Immunohistochemical (IHC) analysis of lung metastases […]

As for `CCN(CC)CCNC(=O)c1c(C)[nH]c(/C=C2\C(=O)Nc3ccc(F)cc32)c1C` [sunitinib, reference compound], where the note is “10 days after discontinuation of 1-week SU, Fig6C”, the thoracic metastases benefit result is reported as “no benefit was observed with respect to thoracic metastases”. For the same compound, under “adjuvant SU, Fig6C, D”, the “abdominal tumor growth vs. thoracic metastatic dissemination” value was “more effective at inhibiting abdominal tumor growth (Fig6D) than thoracic metastatic dissemination”.

“CHHHRHSF [Vasculotide, 4-armed maleimide-functionalized polyethylene glycol (PEG) backbone to link together four cysteine-capped T7 peptides, that is, CHHHRHSF]”: under “Fig6C and D”, the “tumor bioluminescence, VT combined with 1-wk SU” value was “lowered tumor bioluminescence to a similar extent as 3-wk SU monotherapy”. The survival advantage result (VT monotherapy, Plog-rank = 0.42, Fig6A) is “not statistically significant”. For the same compound, the “thoracic metastatic dissemination vs. abdominal tumor growth” value (thoracic P = 0.04, abdominal P > 0.05 for VT, Fig6C, D) is on record as “more effective at inhibiting thoracic metastatic dissemination (Fig6C, P = 0.04) than abdominal tumor growth (Fig6D, P > 0.05)”.
